Consider three compounds from patent US20050267016A1, “CD-10 activated prodrug compounds” (priority 2001, published 2005).

Where “and” joins values, the source holds several entries; their conditions need not be identical. Identical values can stand only once. Like-named read-outs stand apart in the source and are kept apart here. Marks after values point to notes of the source that are not given here.

As usually defined, the AUC(0-t) is the area under the concentration-time curve up to a stated or last time point. Low values mean less exposure, high ones more exposure. Broadly, the MTD is the highest dose tested that stayed within the study's limit of toxicity.

Data set [1] relates to LNCaP prostate carcinoma xenograft. The experiment in a line: LNCaP prostate carcinoma xenograft in nude mice, Q7D × 3 (Examples 30, 31). How it is done:
In this model, 7.5 million LNCaP cells resuspended in 0.1 ml of phosphate buffered saline and 0.1 ml of Matrigel (Becton Dickinson) were injected into the side of male nude mice fed on high fat diet.

In data set [2] the test system is LNCaP human prostate carcinoma xenografts. How it is done: LNCaP human prostate carcinoma cells express high levels of CD10 on the surface. Suc-βAla-Leu-Ala-Leu-Dox and Suc-Leu-Ala-Gly-Dox were tested at a single dose level Q7Dx5. […] The mice were weighed and tumors were measured (by caliper) at least once a week prior to start of dosing (Day 0), then twice a week during the study. Immediately before the start of dosing (Study Day −2 to Day 0), mice were randomized to various groups based on the weight of the tumors. […] Mice were euthanized after the tumors reached a cutoff weight of 1.5 g (cancer endpoint), or when mice suffered over 25% weight loss (toxic endpoint). Studies were terminated at Day 60.

In data set [3] the test system is human colon carcinoma (HT-29) xenograft. An excerpt:
Healthy young male nude mice were subcutaneously injected with 5 million of HT-29 cells.

The test system of data set [4] is CD10 transfected CHO cells (clone 8). Kind of data set: Conversion to Leu-Dox or Gly-Dox in cell supernatants, CD10 transfected CHO. The format is cell-based, Chinese Hamster. To be noted: Clone 8 (CD10 transfected), 10 μM, 37° C. How it is done: (§1) To directly ask the question of whether the CD10 expressing cells were capable of cleaving the prodrug, supernatants from CD10 transfected or parental CHO cells treated with the compounds were collected. […] After incubation for 1, 4, and 24 hours, an aliquot of each supernatant was transferred to a 96-well plate and frozen at −20° C. Samples were subsequently thawed and analyzed by reversed phase HPLC (4.6×50 mm 21 TSK Super-ODS column) with fluorescence detection after dilution with 3 volumes of acetonitrile, removal of precipitate by centrifugation, and further dilution into 3 volumes of water. When incubated with Suc-βAla-Leu-Ala-Leu-Dox, there was no detectable metabolism to Leu-Dox observed with the parental cell line while clone 8 (CD10 transfected) generated significant levels of Leu-Dox from Suc-βAla-Leu-Ala-Leu-Dox (Table 27).

The conditions of data set [5]: mouse, in vivo, iv, 100 umol/kg.
Procedure: (§5) Plasma was obtained from three individual animals in each group at 5 minutes, 1, 2, 4, or 6 hr.
In data set [6] the test system is LNCaP (prostate carcinoma) cells. To be noted: ratio of IC50. Here is the method:
(§2) Adherent cells, LNCaP (prostate carcinoma), HT-29 (colon carcinoma) and PC-3 (prostate carcinoma), were cultured in DMEM media containing 10% heat inactivated fetal calf serum (FCS). On the day of the study the cells were detached from the plate with a trypsin solution. The collected cells were washed and resuspended at a concentration of 0.25×10^6 cells/ml in DMEM containing 10% FCS. 100 μl of cell suspension were added to 96 well plates and the plates were incubated for 3 hours to allow the cells to adhere. […] The plates were then incubated for 24 hours, pulsed with 10 μl of a 100 μCi/ml ^3H-thymidine and incubated for an additional 24 hours (total incubation time 48 hours). The plates were harvested using a 96 well Harvester (Packard Instruments) and counted on a Packard Top Count Counter. Four parameter logistic curves were fitted to the ^3H-thymidine incorporation as a function of drug molarity using Prism software to determine IC50 values.
as §2, with “carcinoma), PC-3 (prostate” for “carcinoma), HT-29 (colon”, “and 22 RV1” for “and PC-3”, “with 1:0” for “with 10”
(§3) The effect of two known inhibitors of CD10 on prodrug activity in Ramos, LNCaP and Ball-1 cells was evaluated. The IC50 of Suc-βAla-Ile-Ala-Leu-Dox was determined in the presence of increasing concentration of the CD10 inhibitors, phosphoramidon and thiorphan.

The conditions of data set [7]: mouse, in vivo, iv, 100 umol/kg. This is another data set of the same source.
Procedure: as §5
A further data set deals with Ramos cells (CD10pos). The experiment in a line: cells. To be noted: ratio of IC50. Here is the method:
(§4) Suspension cells, BALL-1, Ramos and Namalwa cells were cultured in RPMI media containing 10% heat inactivated fetal calf serum (FCS). On the day of the study, the cells were collected, washed and resuspended at a concentration of 0.5×10^6 cells/ml in RPMI containing 10% FCS. 100 µl of cell suspension was added to 96 well plates. […] Finally 10 μl of a 100 μCi/ml ^3H-thymidine was added per well and the plates were incubated for 24 hours. The plates were harvested using a 96 well Harvester (Packard Instruments) and counted on a Packard Top Count counter. Four parameter logistic curves were fitted to the ^3H-thymidine incorporation as a function of drug molarity using Prism software to determine IC50 values.
as §3

The test system of another data set is Namalwa cells (CD10pos). The experiment in a line: cells. The data set is classed as cell-based. The following applies: ratio of IC50. Here is the method: as §4
The test system of data set [8] is Porcine Kidney CD10. The experiment in a line: Hydrolysis by purified CD10. The data set is classed as biochemical. To be noted: for % hydrolysis/10 hr: 12.5 μg/mL, 37° C., pH 7.4, product Leu-doxorubicin; for Fraction hydrolyzed relative to standard: standard Suc-βAla-Leu-Ala-Leu-Dox. How it is done: Reaction products were analyzed by HPLC with fluorescence detection. Rates were essentially linear over the incubation period. The observed product was Leu-doxorubicin.

The next data set has as its system LNCaP xenografts. Kind of data set: LNCaP xenograft in SCID mice, Q6DX2, equitoxic comparison (Example 27). The data set is classed as in vivo, C.B-17.SCID mice. Here is the method: All compounds except Suc-βAla-Leu-Ala-Leu-Dox (three levels) were dosed at two levels with the goal to get a dose response for all compounds.
Knowing that the LNCaP tumor bearing nude mice have weight loss, we chose very conservative dose levels for each compound estimated to be well-tolerated equitoxic doses based on earlier studies and SD-MTD results. The high dose level for repeat dosing is usually 80% of their SD-MTD, and the low dose level is 80% of the high dose level. Accordingly, groups of ten male CD17.SCID mice, subcutaneously injected with 2.5 million LNCaP cells, were treated intravenously with the compounds at the levels described in Table 22 at six day intervals for a total of two identical doses (Q6DX2).
LNCaP tumors grew well in SCID mice, but the SCID mice with LNCaP tumor xenografts experienced severe weight loss, as 80% of control mice had more than 25% of weight loss by the end of the study. Nevertheless, the efficacy of different treatments at approximately equitoxic levels were compared based on the time it took for 50% of mice to reach toxic weight loss and the total numbers of mice with toxic weight loss at the end of study.

The subject of a further data set is Parental CHO cells. The experiment in a line: Conversion to Leu-Dox or Gly-Dox in cell supernatants, parental CHO. The format is cell-based, Chinese Hamster. The following applies: 10 μM, 37° C. How it is done: as §1
A short description of data set [9]: Pharmacokinetic/metabolism study, single IV bolus. The following applies: mice.
Procedure: as §5
A short description of data set [10]: Second single dose Maximum Tolerated Dose (SD-MTD) study, 49 days. The following applies: mouse, in vivo. Here is the method: In a second single dose Maximum Tolerated Dose (SD-MTD) study, groups of five normal ICR mice were administered intravenous bolus doses of Suc-βAla-Leu-Ala-Leu-Dox. The mice were observed daily for 49 days and body weights measured twice weekly.
In a second single dose Maximum Tolerated Dose (SD-MTD) study, groups of five normal ICR mice were administered intravenous bolus doses of Suc-Leu-Ala-Leu-Dox. The mice were observed daily for 49 days and body weights measured twice weekly.
In a second single dose Maximum Tolerated Dose (SD-MTD) study, groups of five normal ICR mice were administered intravenously bolus doses of Suc-Ile-Ala-Leu-Dox. The mice were observed daily for 49 days and body weights measured twice weekly.
In a second single dose Maximum Tolerated Dose (SD-MTD) study, groups of five normal ICR mice were administered intravenous bolus doses of Suc-βAla-Ile-Ala-Leu-Dox. The mice were observed daily for 49 days and body weights measured twice weekly.

Data set [11] deals with Porcine Kidney CD10. Kind of data set: Hydrolysis by purified CD10. The data set is classed as biochemical. The following applies: release of Leu-pNA vs Leu-Dox, 37° C., pH 7.4.
[12] abbreviates: 40 mg/kg every 7 days for 5 doses.
Setting [13] is: 67 mg/kg every 7 days for 5 doses.

Consider `COc1cccc2c1C(=O)c1c(O)c3c(c(O)c1C2=O)C[C@@](O)(C(=O)CO)C[C@@H]3O[C@H]1C[C@H](NC(=O)CNC(=O)[C@H](C)NC(=O)[C@H](CC(C)C)NC(=O)CCC(=O)O)[C@H](O)[C@H](C)O1` [Suc-Leu-Ala-Gly-Dox], for which the “TGI D22” value in [1] (110 mg/kg (70 Dox equi) Q7D × 3) worked out at 39.7±29.5%. For the same compound, the “Survivor D36” value in data set [1] (110 mg/kg Q7D × 3, N 8) is “D36: 6*”. The “Toxic Endpoint” value in [1] (110 mg/kg Q7D × 3, >20% body weight loss) turned out to be 0. The “Cancer Endpoint” value in [1] (110 mg/kg Q7D × 3, tumors reaching 1000 mg) is listed as 2. Further, the “Tumor Weight (mg) D12” value in data set [2] (Dose 110 mg/kg (Table 19), Q7DX5) is on record as “D12: 795 ± 177 (n = 7) mg”. For the same compound, the “Toxicity (Weight Loss >25%)” value in [2] (Dose 110 mg/kg (Table 19), Q7DX5, mice affected/total) is 1/7. In addition, the “Tumor Growth Inhibition (% over control)” value in data set [2] (mouse, in vivo, 110 mg/kg) amounted to 1.4%. Moreover, in data set [3] (setting [12]), the “% TGI (Day 14, mean)” value worked out at 4.0%; the “% TGI (Day 25, median)” value was 37.2%; the “Calculated Mean Day of Survival” value is 39 days and 38.8 ± 6.6 days; the “Mean Tumor Weight at Day 14” value is 704 ± 92 mg. Besides, in data set [3] (setting [12]), the “Median Tumor Weight at Day 25” value is 952 mg, the “Number of Long Term Survivors” value was 1/7 and the “Toxicity (Weight Loss >20%)” value is given as 0/7. Further, in data set [3] (setting [13]), the “% TGI (Day 14, mean)” value was found to be 33.2%*; the “% TGI (Day 25, median)” value turned out to be 43.5%; the “Calculated Mean Day of Survival” value is 41 days and 41.3 ± 7.2 days; the “Mean Tumor Weight at Day 14” value stood at 490 ± 124 mg. For the same compound, in [3] (setting [13]), the “Median Tumor Weight at Day 25” value was 857 mg, the “Number of Long Term Survivors” value is recorded as 3/7 and the “Toxicity (Weight Loss >20%)” value was 0/7. For the same compound, in data set [4], the “Conversion rate to Leu-Dox or Gly-Dox” value was found to be 0.06 mM/h and the “Percent Conversion/Hour to Leu-Dox or Gly-Dox” value is 0.61 Percent Conversion/Hour. Moreover, the AUC(0-t) in [5] was 310 µM·h. In [6], the “Ratio PC-3:LNCaP” value is given as 3. In data set [7], the “Plasma AUC0-6 hr of AL-Dox or AG-Dox*” value was found to be 2.1 µM·h and the “Plasma AUC0-6 hr of L-Dox or G-Dox*” value came out at 0.9 µM·h. For the same compound, the “Ratio Ball-1:Ramos” value in the data set with Ramos cells (CD10pos) is listed as 1. The “Ratio Ball-1:Namalwa” value in the data set with Namalwa cells (CD10pos) turned out to be 1. In the data set with Porcine Kidney CD10 [8], the “% hydrolysis/10 hr” value is reported as 0 % hydrolysis/10 hr and the “Fraction hydrolyzed relative to standard” value is recorded as 0. Moreover, in the data set with LNCaP xenografts (110 mg/kg Q6DX2), the “% Weight Loss at the end of study” value was found to be 80% and the “Time: 50% Weight Loss” value was 33 days. Also, in the data set on LNCaP xenografts (132 mg/kg Q6DX2), the “% Weight Loss at the end of study” value came out at 80% and the “Time: 50% Weight Loss” value was determined as 29 days. For the same compound, in the data set with Parental CHO cells, the “Conversion rate to Leu-Dox or Gly-Dox” value is 0.06 mM/h and the “Percent Conversion/Hour to Leu-Dox or Gly-Dox” value is recorded as 0.57 Percent Conversion/Hour.
Take `COc1cccc2c1C(=O)c1c(O)c3c(c(O)c1C2=O)C[C@@](O)(C(=O)CO)C[C@@H]3O[C@H]1C[C@H](NC(=O)[C@H](CC(C)C)NC(=O)[C@H](C)NC(=O)[C@H](CC(C)C)NC(=O)CCC(=O)O)[C@H](O)[C@H](C)O1` [Suc-Leu-Ala-Leu-Dox]: the AUC(0-t) in data set [5] was determined as 634 µM·h. The “Ratio PC-3:LNCaP” value in data set [6] is given as 50. In data set [7], the “Plasma AUC0-6 hr of AL-Dox or AG-Dox*” value stood at 1.6 µM·h and the “Plasma AUC0-6 hr of L-Dox or G-Dox*” value was found to be 5.1 µM·h. Also, the “Major Plasma Metabolite” value in data set [9] is listed as “Leu-Dox”. Also, the “Ratio Ball-1:Ramos” value in the data set with Ramos cells (CD10pos) is listed as around 30. Moreover, the “Ratio Ball-1:Namalwa” value in the data set with Namalwa cells (CD10pos) is around 35. Further, in the data set on Porcine Kidney CD10 [8], the “% hydrolysis/10 hr” value was determined as 8.3 % hydrolysis/10 hr and the “Fraction hydrolyzed relative to standard” value was 0.75. Besides, in [10], the maximal tolerated dose (MTD) was 42 mg/kg. This compound yielded an MTD in [10] (iv) of 71 mg/kg. Moreover, in the data set on LNCaP xenografts (58.3 mg/kg Q6DX2), the “Time: 50% Weight Loss” value worked out at 33 days and the “Time: 100% Weight Loss” value came to 61 days. For the same compound, in the data set on LNCaP xenografts (70.5 mg/kg Q6DX2), the “Time: 50% Weight Loss” value was 26 days and the “Time: 100% Weight Loss” value worked out at 47 days.
Take Suc-βAla-Leu-Ala-Leu-pNA: the “rate of cleavage relative to Suc-βAla-Leu-Ala-Leu-Dox” value with Porcine Kidney CD10 [11] is 590 times.
